{"source": "patent US20170209544A1", "about": "“A PEPTIDE THERAPY TO COUNTERACT INSULIN RESISTANCE AND TYPE 2 DIABETES” (The Regents of the University of California, priority 2014, published 2017)", "key": {"peritoneal macrophages": {"system": "peritoneal macrophages", "experiment": "In vitro chemotaxis assay", "type": "cell-based, mice", "protocol": "In vitro chemotaxis assays were performed as previously described. Briefly, thioglycollate-activated peritoneal macrophages were isolated from 8 week-old male C57BL/6J mice and pretreated with the indicated concentrations of PST for 2 hours at 37° C. in serum-free RPMI. For migration analysis, 200,000 peritoneal macrophages were placed in each of the upper chamber of a 4-μm polycarbonate filter (24-transwell format; Corning, Tewksbury, Mass.), whereas compounds resuspended in serum-free RPMI at the indicated concentrations were placed in the lower chamber. After 3 hours of migration at 37° C., cells were fixed in 4% paraformaldehyde, stained with DAPI and counted under the microscope."}, "KO-DIO mice [1]": {"system": "KO-DIO mice", "experiment": "GTT, ITT and fasting insulin in PST-treated KO-DIO mice", "type": "in vivo", "protocol": "For glucose tolerance tests (GTT), glucose (1 mg/g) was injected intraperitoneally (IP-GTT) (at time zero) or gavaged orally (O-GTT) after a 12-hours fast. Tail-vein glucose levels were measured at −30, 0, 15, 30, 60, 90, and 120 minutes. For insulin tolerance tests (ITT), insulin (0.4 mU/g) was injected intraperitoneally and blood glucose levels were measured at the indicated time points. Chronic PST (5 μg/g/day) and PSTv1 (10 μg/day) treatments were carried out for 15 days. For acute treatment, either peptides or saline were injected 30 minutes before glucose or insulin injection. Synergy Software Kaleidagraph Version 4.0 calculated the area under the curve (AUC) for each line curve.\nDespite increased obesity, KO-DIO mice maintained insulin sensitivity as shown by GTT and ITT. […] WT-DIO and KO-DIO male mice with mixed genetic background were fasted for 12 hrs and subjected to IP-GTT (2-way ANOVA: Strain, p<0.0001; Time, p<0.0001; Interaction, p<0.045; n=8, as shown in FIGS. 12A and 12B), oral GTT (2-way ANOVA: Strain, p<0.0001; Time, p<0.0001; Interaction, p=0.09; n=8, as shown in FIGS. 12C and 12D), or IP-ITT (2-way ANOVA: Treatment (WT), p<0.0001; Time, p<0.0001; Interaction, p=0.56; Treatment (KO), p<0.0001; Time, p<0.0001; Interaction, 0.43; n=9, as shown in FIGS. 12E and 12F), and AUC for glucose excursions were determined (see FIGS. 12B, 12D and 12F). […] and the corresponding AUC were shown in FIGS. 12E and 12F, respectively. Body weight-matched WT-DIO and KO-DIO mice were fasted for 12 hrs and subjected to clamp studies to determine glucose infusion rate (GIR, shown in FIG. 12G), glucose disposal rate (GDR, shown in FIG. 12H), (I) insulin-stimulated GDR (IS-GDR, shown in FIG. 12I) and % suppression of hepatic glucose production (HGP) (n=8-9, shown in FIG. 12J). Fasting (12 hrs) basal levels of plasma insulin before (FIG. 12K) and after (FIG. 12L) chronic PST treatment (5 μg/g BW/day, IP for 15 days) (n=6) were shown. “&” Indicates comparison between WT-DIO+Sal and KO-DIO+Sal, “$” indicates comparison between WT-DIO+Sal and WT-DIO+PST, “#” indicates comparison between KO-DIO+Sal and KO-DIO+PST, and “*” indicates comparison between the indicated groups. “*, $ or #”: P<0.05, “**, &&, ## or $$”: p<0.01, “***, ### or &&&”: p<0.001."}, "Bip/GRP78": {"target": "Bip/GRP78 (Mus musculus, UniProt P20029)", "sequence (P20029 20-655)": "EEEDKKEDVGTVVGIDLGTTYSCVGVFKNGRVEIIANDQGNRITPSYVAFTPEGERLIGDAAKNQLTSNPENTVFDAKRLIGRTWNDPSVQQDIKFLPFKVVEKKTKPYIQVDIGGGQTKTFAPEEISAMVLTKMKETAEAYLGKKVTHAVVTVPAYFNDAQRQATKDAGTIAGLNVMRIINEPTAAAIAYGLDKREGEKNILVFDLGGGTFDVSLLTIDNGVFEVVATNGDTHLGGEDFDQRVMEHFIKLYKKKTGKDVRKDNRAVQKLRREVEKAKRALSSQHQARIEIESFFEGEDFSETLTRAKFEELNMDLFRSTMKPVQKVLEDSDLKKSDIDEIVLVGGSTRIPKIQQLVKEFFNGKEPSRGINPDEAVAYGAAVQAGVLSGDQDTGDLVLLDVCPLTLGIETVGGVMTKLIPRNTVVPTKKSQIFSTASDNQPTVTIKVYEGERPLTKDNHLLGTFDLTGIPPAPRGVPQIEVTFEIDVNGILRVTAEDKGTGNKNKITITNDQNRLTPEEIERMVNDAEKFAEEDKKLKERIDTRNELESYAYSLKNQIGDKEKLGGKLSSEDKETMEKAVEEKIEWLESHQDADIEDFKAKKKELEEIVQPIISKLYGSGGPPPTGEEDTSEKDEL", "experiment": "Pull down assay using biotinylated PST", "type": "binding", "text": "PST interacts with ER chaperone, GRP78/BiP. […] Moreover, PST inhibits GRP78's ATPase enzymatic activity, and impairs its biosynthetic response to UPR activation. PST as an inhibitor of ATPase activity augments expression of gluconeogenic gene and G6Pase. GRP78 over-expression antagonizes this PST action."}, "KO-DIO mice [2]": {"system": "KO-DIO mice", "experiment": "Adipose tissue inflammatory genes and plasma cytokines in PST-treated KO-DIO mice", "type": "in vivo", "conditions": "PST 5 μg/g BW for 15 days", "protocol": "RNA from tissues was extracted using a kit (RNeasy Plus, Qiagen, Valencia, Calif.). After DNase digestion, 200 ng of RNA was transcribed into cDNA in a 20-μl reaction using a High Capacity cDNA Archive kit and this cDNA was amplified. PCR (25-μl reactions) contained 5 μl of cDNA, 2×SYBR Green PCR Master Mix, and 400 nM of each primer. Differences in the threshold cycle number (ΔCt) between the target gene, the housekeeping gene Gapdh and the ribosomal protein gene 36B4 were used to calculate differences in expression. Primer sequences are provided below.\nPlasma cytokine concentrations were determined by a multiplex system from Quansys Biosciences (Logan, Utah).\nAs shown in FIGS. 17A-17H, PST modulates adipose tissue inflammation. A group of KO-DIO mice were injected with saline or PST (5 μg/g BW) for 15 days. Weight-matched saline-treated WT-DIO, KO-DIO and PST-treated KO-DIO mice were fasted for 12 hr and sacrificed. Blood was collected to measure plasma cytokine levels. Tissues were subjected to RNA extraction, cDNA preparation and RT-qPCR analysis for cytokines (FIG. 17A, n=6), pro-inflammatory genes (FIG. 17B: Cd11c & IL-12p40, n=6; FIG. 17C: iNos, n=6), and anti-inflammatory genes (FIG. 17D: Arg-1 & IL-10, n=6; FIG. 17E: Mgl-1, Mgl-2 and Ym1, n=6). “*” Denotes comparison between the indicated groups. “*”: P<0.05, “**”: p<0.01, “***”: p<0.001."}, "[3]": {"conditions": "chronic PST 5 μg/g BW/day IP for 15 days, over WT-DIO levels"}}, "note": "Where no end group is shown, it is not given here.", "data": [{"substance": "PEGKGEQEHSQQKEEEEEMAVVPQGLFRG-amide (PEGKGEQEHSQQKEEEEEMAVVPQGLFRG-NH2) [PST, Wild-type human pancreastatin, a chromogranin A derived peptide]", "values": [{"measurement": "chemotaxis relative to Mcp-1", "setting": "peritoneal macrophages; 10 nM PST vs 10 nM Mcp-1", "result": 44, "unit": "%"}, {"measurement": "chemotaxis compared to saline-treated controls", "setting": "peritoneal macrophages; peritoneal macrophage cultures", "result": "significantly higher levels of chemotaxis"}, {"measurement": "blood glucose", "setting": "KO-DIO mice [1]; PST for 5 days, Chga-KO mice on high fat diet", "result": "led to hyperglycemia"}, {"measurement": "insulin sensitivity phenotype on HFD", "setting": "KO-DIO mice [1]; chronic PST 5 μg/g BW for 15 days", "result": "abolished"}, {"measurement": "fasting glucose", "setting": "KO-DIO mice [1]; [3]", "result": "raised"}, {"measurement": "fasting plasma insulin levels", "setting": "KO-DIO mice [1]; [3]", "result": "raised"}, {"measurement": "binding to ER chaperone Bip/GRP78", "setting": "Bip/GRP78", "result": "binds"}, {"measurement": "plasma levels of IL-12p70 and Mcp-1", "setting": "KO-DIO mice [2]", "result": "raised"}, {"measurement": "plasma levels of Ifnγ, IL-6, Mip-1α, Kc and Tnfα", "setting": "KO-DIO mice [2]", "result": "had no effect"}, {"measurement": "expression of Arg-1 and IL-10", "setting": "KO-DIO mice [2]; adipose tissue", "result": "significantly reduced"}, {"measurement": "expression of Mgl-1 or Mgl-2", "setting": "KO-DIO mice [2]; adipose tissue", "result": "had no effect"}, {"measurement": "expression of Ym-1", "setting": "KO-DIO mice [2]; adipose tissue", "result": "trend toward downregulating"}, {"measurement": "expression of pro-inflammatory genes IL-1β, Tnfα, IL-6, Mcp-1 and iNos", "setting": "KO-DIO mice [2]; adipose tissue", "result": "increased expression"}]}]}
